Results on one compound are retold here after doi:10.1101/614586v1 (biorxiv, 2019).

By IC50 is commonly meant the concentration that inhibits the measured activity by half.

Holding throughout (test): malachite green phosphate ATPase assay
What all share (format): biochemical

One test deals with T1, E. coli RecA (Escherichia coli, UniProt P0A7G6).
T1 sequence (P0A7G6 2-353): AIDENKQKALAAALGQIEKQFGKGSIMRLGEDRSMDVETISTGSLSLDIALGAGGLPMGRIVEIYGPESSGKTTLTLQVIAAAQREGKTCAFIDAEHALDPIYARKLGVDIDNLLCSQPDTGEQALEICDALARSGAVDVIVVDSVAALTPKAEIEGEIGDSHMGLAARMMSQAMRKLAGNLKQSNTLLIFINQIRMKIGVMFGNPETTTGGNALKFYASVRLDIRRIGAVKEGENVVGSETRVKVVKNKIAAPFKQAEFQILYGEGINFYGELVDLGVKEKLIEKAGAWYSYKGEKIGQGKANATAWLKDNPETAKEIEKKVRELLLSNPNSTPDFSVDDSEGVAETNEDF

In another test the target is T2, H. sapiens HLTF (Homo sapiens, UniProt Q14527).
T2 sequence (Q14527 1-1009): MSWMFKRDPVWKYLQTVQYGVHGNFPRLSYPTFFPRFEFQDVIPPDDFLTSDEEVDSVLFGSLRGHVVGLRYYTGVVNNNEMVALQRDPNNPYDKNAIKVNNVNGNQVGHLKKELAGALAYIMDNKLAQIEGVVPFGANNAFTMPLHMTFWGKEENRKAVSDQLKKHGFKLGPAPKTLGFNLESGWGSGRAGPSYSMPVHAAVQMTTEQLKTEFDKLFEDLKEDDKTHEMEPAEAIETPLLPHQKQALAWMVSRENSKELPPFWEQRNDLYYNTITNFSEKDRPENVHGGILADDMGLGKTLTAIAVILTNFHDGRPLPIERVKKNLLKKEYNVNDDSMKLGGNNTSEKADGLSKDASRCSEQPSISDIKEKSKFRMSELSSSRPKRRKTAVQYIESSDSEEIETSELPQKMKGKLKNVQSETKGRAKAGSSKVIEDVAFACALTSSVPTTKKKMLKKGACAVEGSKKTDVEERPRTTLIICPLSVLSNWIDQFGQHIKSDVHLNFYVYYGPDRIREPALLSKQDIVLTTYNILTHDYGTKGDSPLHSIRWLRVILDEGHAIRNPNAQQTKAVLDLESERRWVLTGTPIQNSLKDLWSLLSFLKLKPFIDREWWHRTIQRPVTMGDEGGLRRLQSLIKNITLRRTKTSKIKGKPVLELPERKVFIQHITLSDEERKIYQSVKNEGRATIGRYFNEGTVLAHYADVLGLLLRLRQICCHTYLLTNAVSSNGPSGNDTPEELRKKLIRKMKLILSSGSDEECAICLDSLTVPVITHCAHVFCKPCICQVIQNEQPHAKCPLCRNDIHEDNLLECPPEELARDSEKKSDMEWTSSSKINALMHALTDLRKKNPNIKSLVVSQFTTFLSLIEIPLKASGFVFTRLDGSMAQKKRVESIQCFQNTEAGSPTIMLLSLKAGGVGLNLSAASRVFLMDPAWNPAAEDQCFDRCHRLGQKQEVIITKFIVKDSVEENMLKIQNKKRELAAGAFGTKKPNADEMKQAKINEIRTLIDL

A further test concerns the target T3, H. sapiens SMARCAL1 (Homo sapiens, UniProt Q9NZC9).
T3 sequence (Q9NZC9 2-954): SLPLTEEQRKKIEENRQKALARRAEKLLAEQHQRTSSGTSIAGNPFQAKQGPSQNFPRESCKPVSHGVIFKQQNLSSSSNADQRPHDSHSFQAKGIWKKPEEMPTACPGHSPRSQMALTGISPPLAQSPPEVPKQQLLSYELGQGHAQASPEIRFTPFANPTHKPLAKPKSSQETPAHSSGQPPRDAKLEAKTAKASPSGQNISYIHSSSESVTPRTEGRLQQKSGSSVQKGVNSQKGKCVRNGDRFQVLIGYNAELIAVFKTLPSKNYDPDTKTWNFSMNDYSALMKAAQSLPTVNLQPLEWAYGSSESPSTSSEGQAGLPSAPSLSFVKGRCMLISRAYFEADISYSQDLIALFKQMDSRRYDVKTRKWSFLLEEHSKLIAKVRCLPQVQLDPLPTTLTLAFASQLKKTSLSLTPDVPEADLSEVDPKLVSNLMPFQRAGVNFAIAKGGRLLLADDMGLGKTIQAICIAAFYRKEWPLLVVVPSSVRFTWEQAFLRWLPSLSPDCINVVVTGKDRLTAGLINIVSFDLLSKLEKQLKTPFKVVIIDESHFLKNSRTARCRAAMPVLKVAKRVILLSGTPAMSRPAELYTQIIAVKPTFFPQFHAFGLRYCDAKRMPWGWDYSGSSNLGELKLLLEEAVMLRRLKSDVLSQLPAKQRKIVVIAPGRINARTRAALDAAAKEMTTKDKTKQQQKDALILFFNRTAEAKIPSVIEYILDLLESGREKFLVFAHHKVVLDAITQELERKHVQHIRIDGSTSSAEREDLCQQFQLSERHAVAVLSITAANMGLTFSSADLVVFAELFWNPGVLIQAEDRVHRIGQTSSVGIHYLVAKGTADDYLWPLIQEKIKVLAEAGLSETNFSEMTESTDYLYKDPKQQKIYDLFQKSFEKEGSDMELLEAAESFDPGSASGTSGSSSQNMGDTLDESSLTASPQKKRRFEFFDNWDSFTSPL

A further test concerns the target H. sapiens VCP/p97 (Homo sapiens, UniProt P55072).

H. sapiens VCP/p97, sequence (P55072 2-806): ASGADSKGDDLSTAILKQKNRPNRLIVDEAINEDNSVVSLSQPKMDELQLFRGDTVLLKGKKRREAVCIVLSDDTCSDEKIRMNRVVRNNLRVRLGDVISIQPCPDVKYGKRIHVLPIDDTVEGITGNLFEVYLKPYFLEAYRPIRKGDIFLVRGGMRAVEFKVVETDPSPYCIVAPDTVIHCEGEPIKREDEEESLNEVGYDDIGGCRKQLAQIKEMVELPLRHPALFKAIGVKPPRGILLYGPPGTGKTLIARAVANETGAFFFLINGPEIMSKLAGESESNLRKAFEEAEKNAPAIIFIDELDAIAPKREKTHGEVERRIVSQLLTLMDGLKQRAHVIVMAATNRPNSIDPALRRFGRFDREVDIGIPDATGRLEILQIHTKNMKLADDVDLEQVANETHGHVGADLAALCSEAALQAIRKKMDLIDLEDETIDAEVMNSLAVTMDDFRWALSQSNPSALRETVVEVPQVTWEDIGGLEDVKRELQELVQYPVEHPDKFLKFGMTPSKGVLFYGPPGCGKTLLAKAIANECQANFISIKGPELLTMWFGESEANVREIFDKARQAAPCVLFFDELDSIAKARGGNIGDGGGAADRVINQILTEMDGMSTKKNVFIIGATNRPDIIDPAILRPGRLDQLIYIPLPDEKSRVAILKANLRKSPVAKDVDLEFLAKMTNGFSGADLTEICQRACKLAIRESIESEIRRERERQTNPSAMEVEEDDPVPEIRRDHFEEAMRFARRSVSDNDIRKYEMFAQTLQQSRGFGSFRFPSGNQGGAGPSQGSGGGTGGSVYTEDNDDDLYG

`CN(C)CCCNCC(O)Cn1c2ccc(Cl)cc2c2cc(Cl)ccc21` (stereo not shown) [54i-1]: the IC50 was 0.79 ± 0.05 µM at E. coli RecA, 377 ± 195 µM at H. sapiens HLTF, 5.7 ± 0.6 µM on H. sapiens SMARCAL1 and more than 500 µM against H. sapiens VCP/p97.
